In patent US7236891B2, “Methods of determining polypeptide structure and function” (Queen's University at Kingston, priority 2001, dated 2007):
Entries after “also recorded” stand apart in the source; their conditions may differ. Where two headings read alike, the source gives them in different places. Each block holds one compound with its values, some of them ahead of it. Square brackets hold non-standard residues; d marks the D form. Peptide text beside a SMILES is read from it. Nle = CCCC[C@H](N)C(=O)O

Tests used:
[1] = biological target: T1, μI-II (domain I-II construct from μ-calpain) (Rattus norvegicus, UniProt P97571); assay: Proteolytic activity of μI-II against synthetic peptide substrate SLY-MCA; format: biochemical; details: for inhibition of μI-II protease activity: qualitative, data not shown
T1 construct: extended from residue 29 (MG^29RHENA-) to residue 356; added N-terminal Met (N); made in house; host or cells: E. coli BL21 (DE3)
T1 sequence (P97571 29-356): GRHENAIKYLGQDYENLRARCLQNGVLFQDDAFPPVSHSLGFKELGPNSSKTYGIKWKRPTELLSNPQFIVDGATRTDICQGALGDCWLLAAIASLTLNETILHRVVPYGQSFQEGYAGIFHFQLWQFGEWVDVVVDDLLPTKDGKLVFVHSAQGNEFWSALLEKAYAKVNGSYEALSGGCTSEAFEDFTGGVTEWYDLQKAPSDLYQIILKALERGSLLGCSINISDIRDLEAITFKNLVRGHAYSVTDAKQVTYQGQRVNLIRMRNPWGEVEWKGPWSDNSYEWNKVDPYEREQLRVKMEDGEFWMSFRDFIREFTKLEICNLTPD
Protocol: (§1) Proteolytic digestion of the C105S m-calpain heterodimer was performed at 22° C. in a final volume of less than 150 μL, in 50 mM HEPES pH 7.6, 1 mg/mL calpain, 0.15 mg/mL μI-II, without divalent cations, or with 1 mM CaCl2 or 1 mM MgCl2. Autolysis of μI-II was performed under the same conditions but instead of the C105S m-calpain substrate, 2.5 mg/mL of μI-II was used. The reaction was stopped by the addition of 2×SDS sample buffer. At specific time intervals aliquots were removed and analyzed by SDS-PAGE using a 9% gel. Control reactions lacked the protease domain I–II. The activity of μI-II against the peptide substrate SLY-MCA (Sigma) was also tested in 50 mM HEPES pH 7.6, 200 mM NaCl, 1 mM DTT, 5–30 mM divalent cation (CaCl2, MgCl2, MnCl2, or ZnCl2), 0.75 mM SLY-MCA, 2.5 μM μI-II, in a final volume of 3 mL. MCA release was monitored in a LS50B Perkin Elmer luminescence spectrometer set with excitation and the emission wavelengths at 360 nm and 460 nm, respectively. Steady-state kinetics analysis was performed under the same buffer conditions but in the presence of 0.5 mM CaCl2, by varying SLY-MCA concentration from 0.02–1.5 mM. The steady-state parameters (kcat and KM) were obtained from the Michaelis-Menten plot.

[2] = biological target: T2, μI-II (C115S) (Rattus norvegicus, UniProt P97571, C115S); assay: Intrinsic tryptophan fluorescence of μI-II during Ca2+ titration; format: binding; details: for ability to substitute for CaCl2 in the intrinsic tryptophan fluorescence change: concentrations up to 30 mM
T2 construct: extended from residue 29 (MG^29RHENA-) to residue 356; added N-terminal Met (N); made in house; host or cells: E. coli BL21 (DE3)
T2 sequence (P97571 29-356 C115S): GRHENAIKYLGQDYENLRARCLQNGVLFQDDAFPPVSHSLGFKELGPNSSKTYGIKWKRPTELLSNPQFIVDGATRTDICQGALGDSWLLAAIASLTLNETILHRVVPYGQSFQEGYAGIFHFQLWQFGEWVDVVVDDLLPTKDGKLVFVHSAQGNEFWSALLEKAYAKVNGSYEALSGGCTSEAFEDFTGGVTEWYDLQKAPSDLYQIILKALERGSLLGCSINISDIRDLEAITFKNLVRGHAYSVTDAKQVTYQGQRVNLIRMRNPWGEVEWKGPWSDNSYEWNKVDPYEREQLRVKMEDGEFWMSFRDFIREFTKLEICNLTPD
Protocol: Intrinsic tryptophan fluorescence measurements were performed in a Perkin Elmer LS50B fluorescence spectrophotometer at 22° C. using a stirrer-adapted 4 mL cuvette (Helmma). Excitation and emission wavelength were set at 280 nm and 340 nm, respectively. The reaction buffer was the same as that used for activity measurements against SLY-MCA, and the protein concentration was 0.65 μM. […] CaCl2 (50 mM) dissolved in the reaction buffer was pumped continuously (4 μL/min, Harvard Apparatus pump 22) using a 250 μL microsyringe (Hamilton-microliter 1000 series gastight) through a tube into the cuvette. The reaction mixture was vigorously mixed using the internal magnetic stirrer of the fluorimeter. The fluorescence intensity was corrected for dilution, and the normalised data was fitted to the Hill equation y=x^n/k^n+x^n), where y is the fraction of maximum intensity change, k=[Ca^2+]0.5 (the value of [Ca^2+] at which half-maximum intensity change is observed, n is the Hill coefficient, and x is [Ca^2+]. Intrinsic tryptophan fluorescence measurements were also performed under the same buffer conditions but substituting for CaCl2, either MgCl2, MnCl2, or ZnCl2 up to 30 mM. To test the aggregation state of the domain I–II constructs, relative 90° light scattering was monitored under the same reaction conditions by setting both the excitation and emission wavelength of the spectrophotometer to 320 nm. No significant aggregation was detected even at the highest CaCl2 concentration (30 mM) tested.

[3] = biological target: T3, μI-II (Rattus norvegicus, UniProt P97571); assay: Autolysis of μI-II in 1 mM CaCl2 (SDS-PAGE); details: 1 mM CaCl2, 20 hours
T3 construct: extended from residue 29 (MG^29RHENA-) to residue 356; added N-terminal Met (N); made in house; host or cells: E. coli BL21 (DE3)
T3 sequence (P97571 29-356): as the sequence (P97571 29-356) above
Protocol: as §1

[4] = biological target: T4, intact μ-calpain (Homo sapiens, UniProt P07384); details: reported values; read-out: Ca2+ for half-maximal activation of intact μ-calpain; cited from earlier work
T4 sequence (P07384 1-714): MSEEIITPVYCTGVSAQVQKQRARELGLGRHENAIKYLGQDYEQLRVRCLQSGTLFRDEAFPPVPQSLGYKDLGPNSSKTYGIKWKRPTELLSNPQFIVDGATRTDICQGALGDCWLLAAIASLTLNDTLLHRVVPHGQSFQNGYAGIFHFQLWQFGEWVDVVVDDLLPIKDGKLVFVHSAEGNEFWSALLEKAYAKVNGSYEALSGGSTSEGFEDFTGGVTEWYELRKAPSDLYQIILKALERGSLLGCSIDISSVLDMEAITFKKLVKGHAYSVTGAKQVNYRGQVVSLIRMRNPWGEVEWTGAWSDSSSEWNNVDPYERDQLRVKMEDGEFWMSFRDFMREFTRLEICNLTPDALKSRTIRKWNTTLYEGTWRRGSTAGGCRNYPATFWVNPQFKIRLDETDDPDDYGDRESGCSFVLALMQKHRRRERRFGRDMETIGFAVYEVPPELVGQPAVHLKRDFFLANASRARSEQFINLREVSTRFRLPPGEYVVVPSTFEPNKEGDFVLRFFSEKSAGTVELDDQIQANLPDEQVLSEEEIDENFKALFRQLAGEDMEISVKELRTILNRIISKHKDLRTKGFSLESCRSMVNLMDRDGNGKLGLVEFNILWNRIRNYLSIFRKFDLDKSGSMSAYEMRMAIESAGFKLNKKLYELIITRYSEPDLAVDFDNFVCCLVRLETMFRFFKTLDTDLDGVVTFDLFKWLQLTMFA
T4 sequence (P04632 1-268 partner): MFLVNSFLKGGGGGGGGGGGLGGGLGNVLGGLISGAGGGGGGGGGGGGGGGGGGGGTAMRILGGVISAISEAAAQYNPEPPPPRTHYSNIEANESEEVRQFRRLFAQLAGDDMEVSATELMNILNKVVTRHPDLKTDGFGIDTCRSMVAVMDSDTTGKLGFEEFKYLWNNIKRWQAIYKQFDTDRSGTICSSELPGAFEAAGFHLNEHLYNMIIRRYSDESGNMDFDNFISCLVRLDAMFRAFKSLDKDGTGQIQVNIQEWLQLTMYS

[5] = biological target: T2, μI-II (C115S); assay: Intrinsic tryptophan fluorescence of μI-II during Ca2+ titration; format: binding; details: read-out: Ca2+ requirement for activation of μI-II
[6] = biological target: T3, μI-II; assay: Proteolysis of inactive C105S m-calpain heterodimer by μI-II; format: biochemical; details: 1 mM MgCl2
Protocol: as §1

Compound: CC(=O)N[C@@H](CC(C)C)C(=O)N[C@@H](CC(C)C)C(=O)N[C@H](C=O)CCCNC(=N)N [leupeptin]
inhibition of μI-II protease activity [1]: abolished; also recorded: inhibited

ability to substitute for CaCl2 in the intrinsic tryptophan fluorescence change [2]: unable to substitute
Compound: [Cl-].[Cl-].[Zn+2] [ZnCl2]

Compound: O=C(O)CN(CCN(CC(=O)O)CC(=O)O)CC(=O)O [EDTA, reference compound]
reversal of the Ca2+-induced fluorescence change ([2]; data not shown): completely reversed

ability to substitute for CaCl2 in the intrinsic tryptophan fluorescence change [2]: unable to substitute
Compound: [Cl][Mn][Cl] [MnCl2]

μI-II still present after autodigestion [3]: Over 50%
Compound: μI-II: recombinant protease core, domains I and II (residues 29-356) of rat μ-calpain with C-terminal His tag
catalytic efficiency relative to the full enzyme ([1]; SLY-MCA digestion): ~2%
decrease in turnover (kcat) compared to intact m-calpain ([1]; SLY-MCA digestion): 35 fold

CaCl2 concentration at which the fluorescence increase was >99% complete [2]: ~500 µM
CaCl2 concentration at which the fluorescence increase was first noticeable [2]: ~5 µM
total increase in the fluorescence intensity ([2]; CaCl2 titration): ~36.8±0.5%
Hill coefficient ([2]; CaCl2 titration fitted to the Hill equation): 2.72±0.42
EC50 ([2]; CaCl2 titration, excitation 280 nm, emission 340 nm, read-out: half-maximal change in intrinsic tryptophan fluorescence): 41.8 ± 7.1 µM
EC50 [5]: ~40 µM
Compound: [Ca+2].[Cl-].[Cl-] [CaCl2]
EC50 [4]: 5 to 50 µM

Compound: CCCC[C@@H](C=O)NC(=O)[C@H](CC(C)C)NC(=O)[C@H](CC(C)C)NC(C)=O [calpain inhibitor I] (Ac-Leu-Leu-[Nle]-aldehyde)
inhibition of μI-II protease activity [1]: abolished; also recorded: inhibited

SLY-MCA hydrolysis by E64-reacted μI-II (μI-II-E64) ([1]; C115 μI-II reacted with E64 in 5 mM CaCl2): unable to hydrolyse SLY-MCA
inhibition of μI-II protease activity [1]: abolished; also recorded: inhibited
effect on W298 fluorescence of μI-II ([2]; μI-II-E64 complex): quenching
Compound: CC(C)C[C@H](NC(=O)[C@H]1O[C@@H]1C(=O)O)C(=O)NCCCCN=C(N)N (relative stereo) [E64, trans-epoxysuccinyl-L-leucilamido(4-guanidino)-butane]

proteolysis of C105S m-calpain by μI-II when substituted for Ca2+ [6]: no proteolysis
ability to substitute for CaCl2 in the intrinsic tryptophan fluorescence change [2]: unable to substitute
Compound: [Cl-].[Cl-].[Mg+2] [MgCl2]
